Measured values: patent US20100286250A1, “FLUORINATED LIPIDS AND METHODS OF USE” (TUFTS UNIVERSITY, priority 2007, published 2010)

Tested on: HeLa cells
Assay: Fluorescence assay of HeLa cells incubated with lipid conjugates (microtiter plate reader)
Assay type: cell-based
Details: preformed complexes, washed with PBS
Protocol: General Procedure for Incubation of Cells with Compounds: Cells were cultured in DMEM/RPMI medium supplemented with 10% fetal bovine serum and 1% penicillin/streptomycin. Cells were suspended in phosphate buffered saline (PBS), incubated with an ethanolic solution of lipid conjugates for 1-2 h at 4 or 37° C. to give a final concentration in each well of 0.01-100 μM in a total volume of 100 μL (10% EtOH). After the incubation period, cells were pelleted by centrifugation and washed (2×) and resuspended in 100 μL PBS and analyzed.
ATP Depletion: Cells were pretreated with 4 mM NaN3/0.8 mM NaF in 100 μL PBS for 30 m at 37° C. The cells were then washed with PBS (2×100 μL) and incubated with 100 μM ethanolic solutions of lipids for 2 h (total volume 100 μL, 10% EtOH). Analysis was carried out as described previously.
Incubation under Hypertonic Conditions: Cells were pretreated with 0.3 M sucrose for 30 min at 37° C. in PBS, and were then incubated with lipid solutions. Analysis was carried out as described previously.
Fluorescence Assay: After the incubation period, HeLa cells in PBS were analyzed using an Infinite™ 200 series microtiterplate reader (Tecan Systems, Inc.). All experiments were carried out in 96 well plates with six replicates. The plates were pretreated with 1% BSA for 12 h at 4° C. to minimize non-specific binding.

AF: avidin conjugated to fluorescein isothiocyanate [reference compound]
delivery of AF into the cell (microscopy or fluorescence counting): minimally fluorescent
